Experimental data reported in ChEMBL document CHEMBL1127221, “The design of a dipeptide library for screening at peptide receptor sites” (Bioorg Med Chem Lett, 1993).

Assays:
[1] = molecular target: T1, Gastrin/cholecystokinin type B receptor (Homo sapiens, UniProt P32239); test: Inhibitory activity against Cholecystokinin type B receptor
T1 sequence (P32239 whole entry): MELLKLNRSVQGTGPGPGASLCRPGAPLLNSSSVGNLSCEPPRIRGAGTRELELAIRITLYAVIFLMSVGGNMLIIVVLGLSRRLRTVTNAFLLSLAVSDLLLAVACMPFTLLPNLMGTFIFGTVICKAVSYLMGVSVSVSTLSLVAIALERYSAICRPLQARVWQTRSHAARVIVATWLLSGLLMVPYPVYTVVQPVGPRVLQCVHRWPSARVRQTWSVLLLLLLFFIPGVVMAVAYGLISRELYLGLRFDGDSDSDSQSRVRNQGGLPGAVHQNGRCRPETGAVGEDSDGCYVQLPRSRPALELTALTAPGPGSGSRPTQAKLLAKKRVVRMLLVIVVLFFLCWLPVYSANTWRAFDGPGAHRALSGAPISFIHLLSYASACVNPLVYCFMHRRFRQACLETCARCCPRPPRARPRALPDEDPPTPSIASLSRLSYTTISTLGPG

[2] = molecular target: T2, Cholecystokinin receptor type A (Homo sapiens, UniProt P32238); test: Inhibitory activity against CCK-A receptor
T2 sequence (P32238 whole entry): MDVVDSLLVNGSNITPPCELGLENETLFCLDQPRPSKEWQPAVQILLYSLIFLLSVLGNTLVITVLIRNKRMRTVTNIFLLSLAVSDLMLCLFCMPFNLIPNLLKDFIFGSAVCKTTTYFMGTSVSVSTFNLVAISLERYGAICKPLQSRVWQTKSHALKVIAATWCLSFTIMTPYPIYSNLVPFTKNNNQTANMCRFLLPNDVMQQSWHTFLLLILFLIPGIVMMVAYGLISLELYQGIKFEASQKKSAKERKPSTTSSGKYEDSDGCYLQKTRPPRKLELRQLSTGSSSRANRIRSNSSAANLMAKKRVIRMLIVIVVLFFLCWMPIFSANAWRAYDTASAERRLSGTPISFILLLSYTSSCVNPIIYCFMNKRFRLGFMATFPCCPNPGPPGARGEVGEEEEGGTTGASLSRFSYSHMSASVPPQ

[3] = molecular target: Angiotensin-converting enzyme (Homo sapiens, UniProt P12821); test: Inhibitory activity against Angiotensin I converting enzyme
Chain of Angiotensin-converting enzyme (P12821 whole entry): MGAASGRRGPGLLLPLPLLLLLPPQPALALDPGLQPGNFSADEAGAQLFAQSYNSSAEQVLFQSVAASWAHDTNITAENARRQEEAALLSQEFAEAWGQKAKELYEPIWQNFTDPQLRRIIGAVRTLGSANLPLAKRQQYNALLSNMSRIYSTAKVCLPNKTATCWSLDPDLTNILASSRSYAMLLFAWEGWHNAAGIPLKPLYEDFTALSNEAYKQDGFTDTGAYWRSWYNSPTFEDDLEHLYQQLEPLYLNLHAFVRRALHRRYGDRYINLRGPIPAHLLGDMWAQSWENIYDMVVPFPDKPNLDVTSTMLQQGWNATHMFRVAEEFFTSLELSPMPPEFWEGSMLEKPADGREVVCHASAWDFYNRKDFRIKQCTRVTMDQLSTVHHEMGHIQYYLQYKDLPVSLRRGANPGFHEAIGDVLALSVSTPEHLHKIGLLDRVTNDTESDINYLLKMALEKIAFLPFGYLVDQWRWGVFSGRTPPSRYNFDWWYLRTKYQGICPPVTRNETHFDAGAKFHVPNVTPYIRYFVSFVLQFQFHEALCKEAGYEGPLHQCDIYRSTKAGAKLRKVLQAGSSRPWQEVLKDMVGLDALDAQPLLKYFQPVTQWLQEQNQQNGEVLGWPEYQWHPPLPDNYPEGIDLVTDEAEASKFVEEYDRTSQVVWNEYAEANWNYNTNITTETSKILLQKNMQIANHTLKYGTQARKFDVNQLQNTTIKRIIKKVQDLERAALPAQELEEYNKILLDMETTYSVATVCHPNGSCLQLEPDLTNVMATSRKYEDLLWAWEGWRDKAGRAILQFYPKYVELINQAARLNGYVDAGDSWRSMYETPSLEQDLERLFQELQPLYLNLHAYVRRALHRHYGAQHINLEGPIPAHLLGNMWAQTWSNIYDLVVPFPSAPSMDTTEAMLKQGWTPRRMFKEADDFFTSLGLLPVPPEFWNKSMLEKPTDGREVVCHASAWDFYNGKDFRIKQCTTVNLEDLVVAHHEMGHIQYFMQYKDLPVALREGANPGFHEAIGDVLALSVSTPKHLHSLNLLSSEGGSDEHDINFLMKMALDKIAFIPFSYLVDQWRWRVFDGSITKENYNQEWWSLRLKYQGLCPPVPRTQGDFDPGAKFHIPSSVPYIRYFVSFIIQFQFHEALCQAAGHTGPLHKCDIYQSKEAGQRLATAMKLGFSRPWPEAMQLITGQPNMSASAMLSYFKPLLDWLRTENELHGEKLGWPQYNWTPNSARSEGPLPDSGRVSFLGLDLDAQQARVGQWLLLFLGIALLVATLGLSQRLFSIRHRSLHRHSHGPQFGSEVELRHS

C[C@@](N)(Cc1cn(C(=O)OC2C3CC4CC(C3)CC2C4)c2ccccc12)C(=O)NC[C@H](NC(=O)CCC(=O)O)c1ccccc1 (stereo partly drawn)
Ki [1]: 1.7 nM

C[C@@](N)(Cc1cn(C(=O)OC2C3CC4CC(C3)CC2C4)c2ccccc12)C(=O)N[C@H](CC(=O)O)Cc1ccccc1 (stereo partly drawn)
Ki [2]: 3 nM

H-EWPRPQIPP-OH
Ki [3]: 100 nM
